Measured values as given in patent US20040157773A1, “Farnesyl protein transferase inhibitors for treating cachexia” (priority 2003, published 2004).

Tests used:
[1] = Body weight loss (cachexia) in nude mice bearing subcutaneous A375.S2 tumors; format: in vivo; conditions: for reduction in weight loss: weight loss day 1 to day 23, corrected for tumor burden, vs vehicle
Description: (§1) A375.S2 human melanoma cells were purchased from the American Type Culture Collection (Rockville, Md.). Cells were maintained in Dulbecco's Modified Eagle's Medium supplemented with pyruvate, nonessential amino acids, 10% fetal calf serum and penicillin-streptomycin.
(§2) Female nu/nu immunodeficient nude mice (42 days old) were purchased from Charles River Laboratories (Wilmington, Mass.). Mice were housed five per cage in microisolator cages placed in laminar flow shelving to maintain sterility. All bedding, food, water and cages were autoclaved. Animals were handled within the sterile confines of a laminar flow cabinet. The mice were otherwise maintained under standard vivarium conditions.
Cells growing as monolayers in T150 tissue culture flasks were detached by trypsinization with 10 ml of 0.05% trypsin plus 0.53 mM EDTA per flask. Tumor cell suspensions were pooled and trypsin was inactivated by the addition of serum containing medium (10 ml per 40 ml of trypsin cell suspension). Cells were collected by centrifugation and resuspended in Hank's Balanced Salt Solution (HBSS) warmed to 37° C. A 1.0 ml portion of cell suspension was added to 20 ml of diluent and counted on a Coulter particle counter. The cell suspensions were recentrifuged and resuspended at a concentration of 1×10^6 cell per 0.10 ml of HBSS. Mice were inoculated with a single subcutaneous injection of 0.10 ml of tumor cell suspension in the inguinal region. Mice were housed five per cage with 15 mice assigned to each treatment group. Mice were tagged by ear punches to allow the monitoring of individual mice during the course of the study. Body weight and tumor size determined from caliper measurements were measured weekly. The caliper measurements of length and width were multiplied to obtain tumor areas. At the end of study, mice were sacrificed by CO2 asphyxiation. Three days after tumor inoculation, the five-day treatment with R115777 was initiated. R115777 was administered once daily by oral gavage in a 20% β-cyclodextrin vehicle as a volume of 0.10 ml of solution per 10 gm body weight. Control groups received the same dosage volume of the 20% β-cyclodextrin vehicle.
R115777 was prepared for oral administration by dissolving the compound first as a 2× concentrated stock in 40% hydroxypropyl β-cyclodextrin in 0.1 N HCl. R115777 was dissolved by stirring vigorously approximately 30 minutes followed by sonication for 10 min. The R115777 solutions were brought to a final concentration by diluting 1:1 with 0.1 N HCl. The final drug solutions were sterile filtered immediately and transferred to sterile tubes. Solutions were stored refrigerated and protected from light during the course of the study and sterility was maintained by opening solutions under sterile laminar flow conditions.
Analysis of variance, mean values for treatment groups and standard error of the mean for in vivo parameters were calculated using IMSL subroutines on a VAX computer. A value of p<0.05 was considered significant. Weight loss was calculated for each individual animal from day 1 to day 23. Mean body weight loss for each treatment group was calculated and used for statistical analyses.

[2] = tested on: A375.S2 human melanoma cells; experiment: Tumor growth of subcutaneous A375.S2 xenografts in nude mice; format: in vivo; conditions: oral
Description: as §1, §2
Cells growing as monolayers in T150 tissue culture flasks were detached by trypsinization with 10 ml of 0.05% trypsin plus 0.53 mM EDTA per flask. […] A 1.0 ml portion of cell suspension was added to 20 ml of diluent and counted on a Coulter particle counter. […]
Analysis of variance, mean values for treatment groups and standard error of the mean for in vivo parameters were calculated using IMSL subroutines on a VAX computer. […] Weight loss was calculated for each individual animal from day 1 to day 23. Mean body weight loss for each treatment group was calculated and used for statistical analyses.

## Cn1cncc1C(N)(c1ccc(Cl)cc1)c1ccc2c(c1)c(-c1cccc(Cl)c1)cc(=O)n2C (single isomer, unassigned; (+)) [R115777, (+)-6-[amino(4-chlorophenyl)(1-methyl-1H-imidazol-5-yl)methyl]-4-(3-chlorophenyl)-1-methyl-2(1H)-quinolinone]
[1]; 50 mg/kg once daily oral gavage, A375.S2 tumor-bearing nude mice
  reduction in weight loss: 28%
[1]; 100 mg/kg once daily oral gavage, A375.S2 tumor-bearing nude mice
  reduction in weight loss: 45%
[1]; 200 mg/kg once daily oral gavage, A375.S2 tumor-bearing nude mice
  reduction in weight loss: 67%
[1]; oral, 50-200 mg/kg, body weight over time from day 14 (FIG. 2), A375.S2 tumor-bearing nude mice
  body weight course (weight loss): appeared to prevent or delay the weight loss in a dose-dependent fashion
[1]; oral, 50-200 mg/kg, individual weight loss day 1 to day 23 corrected for tumor burden (FIG. 3), p<0.05 significant
  body weight loss, statistical result: significant dose dependent reduction of body weight loss
[2]; highest tested dose, postmortem tumor weight (FIG. 5)
  reduction of final tumor weight: 27%
[2]; 50-200 mg/kg, biweekly tumor area measurements (FIG. 1)
  tumor growth from tumor area measurements: minimal reduction in tumor growth
